According to the NIST ThermoML archive (doi:10.1021/je9004068):
± gives the expanded uncertainty stated by the source.

Tests used:
[1] = refractive index (Na D-line) (dimensionless); details: 298.15 K; 101.33 kPa; Liquid; Standard Abbe refractometry
[2] = for mass density: 298.15 K, 101.33 kPa; for mass density / vapor or sublimation pressure: Liquid; for surface tension liquid-gas: 303.15 K, Maximal bubble pressure
[3] = xn = mol fraction of the nth substance listed; details: 303.15 K, Maximal bubble pressure

COC(C)(C)C [2-methoxy-2-methylpropane]
refractive index [1]: 1.36766 ± 0.00031
mass density [2]: 735.45 ± 0.36 kg/m3
surface tension liquid-gas [2]: 18.7 ± 0.25 mN/m
vapor or sublimation pressure ([2]; 308.3 K): 50 ± 0.12 kPa
vapor or sublimation pressure ([2]; 319.39 K): 75 ± 0.13 kPa
vapor or sublimation pressure ([2]; 325.98 K): 94 ± 0.15 kPa

COC(C)(C)C [2-methoxy-2-methylpropane] + CCO
surface tension liquid-gas ([3]; x2 = 0.102): 18.39 ± 0.25 mN/m
surface tension liquid-gas ([3]; x2 = 0.212): 18.38 ± 0.25 mN/m
surface tension liquid-gas ([3]; x2 = 0.31): 18.54 ± 0.25 mN/m
surface tension liquid-gas ([3]; x2 = 0.408): 18.84 ± 0.25 mN/m
surface tension liquid-gas ([3]; x2 = 0.527): 19 ± 0.25 mN/m
surface tension liquid-gas ([3]; x2 = 0.623): 19.21 ± 0.25 mN/m
surface tension liquid-gas ([3]; x2 = 0.721): 19.56 ± 0.25 mN/m
surface tension liquid-gas ([3]; x2 = 0.826): 20.03 ± 0.25 mN/m

CCO [ethanol]
refractive index [1]: 1.36068 ± 0.00031
mass density [2]: 785.05 ± 0.31 kg/m3
surface tension liquid-gas [2]: 21.7 ± 0.26 mN/m
vapor or sublimation pressure ([2]; 310.89 K): 16.01 ± 0.08 kPa
vapor or sublimation pressure ([2]; 318.88 K): 24.01 ± 0.08 kPa
vapor or sublimation pressure ([2]; 323.51 K): 30.01 ± 0.09 kPa
vapor or sublimation pressure ([2]; 328.54 K): 38.01 ± 0.1 kPa
vapor or sublimation pressure ([2]; 332.24 K): 45.01 ± 0.11 kPa
vapor or sublimation pressure ([2]; 334.57 K): 50 ± 0.11 kPa
vapor or sublimation pressure ([2]; 335.05 K): 51.01 ± 0.11 kPa
vapor or sublimation pressure ([2]; 338.38 K): 59.01 ± 0.13 kPa
vapor or sublimation pressure ([2]; 341.01 K): 66.01 ± 0.14 kPa
vapor or sublimation pressure ([2]; 343.4 K): 73.01 ± 0.14 kPa
vapor or sublimation pressure ([2]; 344.02 K): 75 ± 0.15 kPa
vapor or sublimation pressure ([2]; 345.61 K): 80.01 ± 0.15 kPa
vapor or sublimation pressure ([2]; 347.66 K): 87.01 ± 0.16 kPa
vapor or sublimation pressure ([2]; 349.56 K): 94 ± 0.17 kPa
vapor or sublimation pressure ([2]; 349.58 K): 94.01 ± 0.17 kPa
vapor or sublimation pressure ([2]; 351.65 K): 102.07 ± 0.18 kPa
